In brackets after ≈: the same amount, converted by molar mass.
Assays:
[1] = Solubility of levosimendan in phosphate buffer at room temperature; format: physicochemical; conditions: aqueous buffer
Protocol: (§1) At room temperature the solubility of levosimendan in phosphate buffer is 0.4 mg/ml (pH 7.4), 0.03 mg/ml (pH 6) and 0.02 mg/ml (pH 2). Thus, the water solubility of levosimendan decreases quite sharply when pH is lowered below neutral. […] Such solutions are chemically and physically stable over an extended period of time and, therefore, they are particularly suitable for pharmaceutical use.

pKa of levosimendan = format: physicochemical
Protocol: as §1

A solubility ([1]; pH 2) of 20 µg/mL (≈ 71.4 µM), a solubility ([1]; pH 6) of 30 µg/mL (≈ 107 µM) and a solubility ([1]; pH 7.4) of 400 µg/mL (≈ 1430 µM) were found for CC1CC(=O)NN=C1c1ccc(NN=C(C#N)C#N)cc1 (single isomer, unassigned; (-)) [levosimendan, (−)-[[4-(1,4,5,6-tetrahydro-4-methyl-6-oxo-3-pyridazinyl)phenyl]hydrazono]propanedinitrile] in this work. It also gave a pKa (pKa of levosimendan) of 6.26.
